Test results reported in US12195410B2, “Nitrapyrin compositions for enhancing nitrogen nutrient use efficiency and improving plant growth” (Verdesian Life Sciences U.S., LLC, priority 2018, dated 2025).

Tests used:
[1] = Formation of solutions of nitrapyrin salts at 20% w/w nitrapyrin and grading of solutions; assay type: physicochemical; parameters: key: 5: Fully dissolved; 4: Mostly dissolved; 3: Mostly not dissolved; 2: Not dissolved; 1: Additional precipitate
Text: Example 2. Formation of Solutions of Nitrapyrin Salts and Grading of Solutions

[2] = Nitrapyrin volatilization, weight loss on heated balance at 100° C.; assay type: physicochemical; conditions: for weight as a percent of original weight: heated balance 100° C.
Description: Three materials were placed on a heated balance at 100° C. and had their weights observed every minute for 10 minutes, as a percent of original weight. The materials were: • 1. pure nitrapyrin, • 2. 25% w/w solution of nitrapyrin in sulfolane, and • 3. solution of 25% nitrapyrin salt with equimolar (on acid basis) amount of maleic-itaconic copolymer, also in sulfolane (nitrapyrin/polyanionic polymer salt).
Therefore, the disclosed nitrapyrin salts substantially reduce the volatilization of nitrapyrin.

[3] = solvent Rhodiasolv Polarclean (L)
[4] = solvent propylene carbonate (F)
[5] = solvent tripropylene glycol (E)

Question: With `O=C(O)C(O)C(O)C(=O)O` (centres unmarked) [tartaric] as the compound, how does the grading of solution ([1]; solvent Agnique AMD3L (I)) read?
Answer: 5

Question: And the grading of solution ([1]; solvent Agnique AMD810 (H))?
Answer: 5

Question: And the grading of solution ([1]; solvent PT250 (C))?
Answer: 1

Question: What about the grading of solution ([1]; solvent PT700 (B)) of the same compound?
Answer: 2

Question: What about the grading of solution ([1]; solvent Rhodiasolv ADMA10 (J)) of the same compound?
Answer: 5

Question: And the grading of solution ([1]; solvent Rhodiasolv ADMA810 (K))?
Answer: 5

Question: What about the grading of solution [1, 3] of the same compound?
Answer: 5

Question: And the grading of solution ([1]; solvent dipropylene glycol (A))?
Answer: 2

Question: And the grading of solution [1, 4]?
Answer: 2

Question: And the grading of solution ([1]; solvent triacetin (G))?
Answer: 2

Question: And the grading of solution ([1]; solvent triethylene glycol (D))?
Answer: 1

Question: And the grading of solution [1, 5]?
Answer: 2

Question: Which results are given for `Clc1cccc(C(Cl)(Cl)Cl)n1.Clc1cccc(C(Cl)(Cl)Cl)n1.O=C(O)c1cccc(C(=O)O)c1` [isophthalic]?
Answer: grading of solution ([1]; solvent Agnique AMD3L (I)): 3; grading of solution ([1]; solvent Agnique AMD810 (H)): 3; grading of solution ([1]; solvent PT250 (C)): 1; grading of solution ([1]; solvent PT700 (B)): 2; grading of solution ([1]; solvent Rhodiasolv ADMA10 (J)): 3; grading of solution ([1]; solvent Rhodiasolv ADMA810 (K)): 3; grading of solution [1, 3]: 3; grading of solution ([1]; solvent dipropylene glycol (A)): 2; grading of solution [1, 4]: 3; grading of solution ([1]; solvent triacetin (G)): 3; grading of solution ([1]; solvent triethylene glycol (D)): 1; grading of solution [1, 5]: 4

Question: For `CC(O)(P(=O)(O)O)P(=O)(O)O.Clc1cccc(C(Cl)(Cl)Cl)n1.Clc1cccc(C(Cl)(Cl)Cl)n1.Clc1cccc(C(Cl)(Cl)Cl)n1.Clc1cccc(C(Cl)(Cl)Cl)n1` [etidronic], which grading of solution ([1]; solvent Agnique AMD3L (I)) is on record?
Answer: 5

Question: What about the grading of solution ([1]; solvent Agnique AMD810 (H)) of the same compound?
Answer: 4

Question: And the grading of solution ([1]; solvent PT250 (C))?
Answer: 1

Question: What about the grading of solution ([1]; solvent PT700 (B)) of the same compound?
Answer: 4

Question: What about the grading of solution ([1]; solvent Rhodiasolv ADMA10 (J)) of the same compound?
Answer: 5

Question: What about the grading of solution ([1]; solvent Rhodiasolv ADMA810 (K)) of the same compound?
Answer: 4

Question: What about the grading of solution [1, 3] of the same compound?
Answer: 5

Question: What about the grading of solution ([1]; solvent dipropylene glycol (A)) of the same compound?
Answer: 1

Question: What about the grading of solution [1, 4] of the same compound?
Answer: 2

Question: And the grading of solution ([1]; solvent triacetin (G))?
Answer: 2

Question: What about the grading of solution ([1]; solvent triethylene glycol (D)) of the same compound?
Answer: 1

Question: And the grading of solution [1, 5]?
Answer: 1

Question: What does the source list for `Clc1cccc(C(Cl)(Cl)Cl)n1.Clc1cccc(C(Cl)(Cl)Cl)n1.O=C(O)CC(O)C(=O)O` [malic]?
Answer: grading of solution ([1]; solvent Agnique AMD3L (I)): 5; grading of solution ([1]; solvent Agnique AMD810 (H)): 5; grading of solution ([1]; solvent PT250 (C)): 1; grading of solution ([1]; solvent PT700 (B)): 4; grading of solution ([1]; solvent Rhodiasolv ADMA10 (J)): 5; grading of solution ([1]; solvent Rhodiasolv ADMA810 (K)): 5; grading of solution [1, 3]: 5; grading of solution ([1]; solvent dipropylene glycol (A)): 2; grading of solution [1, 4]: 3; grading of solution ([1]; solvent triacetin (G)): 3; grading of solution ([1]; solvent triethylene glycol (D)): 2; grading of solution [1, 5]: 2

Question: With `O=C(O)CCC(=O)O` [succinic] as the compound, how does the grading of solution ([1]; solvent Agnique AMD3L (I)) read?
Answer: 5

Question: And the grading of solution ([1]; solvent Agnique AMD810 (H))?
Answer: 5

Question: What about the grading of solution ([1]; solvent PT250 (C)) of the same compound?
Answer: 1

Question: And the grading of solution ([1]; solvent PT700 (B))?
Answer: 4

Question: What about the grading of solution ([1]; solvent Rhodiasolv ADMA10 (J)) of the same compound?
Answer: 5

Question: What about the grading of solution ([1]; solvent Rhodiasolv ADMA810 (K)) of the same compound?
Answer: 5

Question: And the grading of solution [1, 3]?
Answer: 5

Question: What about the grading of solution ([1]; solvent dipropylene glycol (A)) of the same compound?
Answer: 3

Question: And the grading of solution [1, 4]?
Answer: 3

Question: What about the grading of solution ([1]; solvent triacetin (G)) of the same compound?
Answer: 2

Question: What about the grading of solution ([1]; solvent triethylene glycol (D)) of the same compound?
Answer: 2

Question: And the grading of solution [1, 5]?
Answer: 3

Question: With `Clc1cccc(C(Cl)(Cl)Cl)n1` [nitrapyrin without solvent, Nitrapyrin] as the compound, how does the “weight as a percent of original weight” value ([2]; experiment time 0 min) read?
Answer: 100.00%

Question: And the “weight as a percent of original weight” value ([2]; experiment time 1 min)?
Answer: 99.20%

Question: And the “weight as a percent of original weight” value ([2]; experiment time 2 min)?
Answer: 98.56%

Question: What about the “weight as a percent of original weight” value ([2]; experiment time 3 min) of the same compound?
Answer: 97.92%

Question: What about the “weight as a percent of original weight” value ([2]; experiment time 4 min) of the same compound?
Answer: 96.00%

Question: What about the “weight as a percent of original weight” value ([2]; experiment time 5 min) of the same compound?
Answer: 94.87%

Question: What about the “weight as a percent of original weight” value ([2]; experiment time 6 min) of the same compound?
Answer: 93.75%

Question: And the “weight as a percent of original weight” value ([2]; experiment time 7 min)?
Answer: 92.63%

Question: What about the “weight as a percent of original weight” value ([2]; experiment time 8 min) of the same compound?
Answer: 90.87%

Question: And the “weight as a percent of original weight” value ([2]; experiment time 9 min)?
Answer: 89.90%

Question: What about the “weight as a percent of original weight” value ([2]; experiment time 10 min) of the same compound?
Answer: 89.10%

Question: And the “nitrapyrin sulfolane volatility ratio, Delta 3-10” value ([2]; nitrapyrin without solvent vs. solvent alone, 100° C., 3 to 10 min)?
Answer: 401%

Question: And the “nitrapyrin sulfolane volatility ratio, Delta 4-10” value ([2]; nitrapyrin without solvent vs. solvent alone, 100° C., 4 to 10 min)?
Answer: 392%

Question: And the “nitrapyrin sulfolane volatility ratio, Delta 5-10” value ([2]; nitrapyrin without solvent vs. solvent alone, 100° C., 5 to 10 min)?
Answer: 393%
